System: SUM149PT spheroids with HUVEC/MSC, viability
Test: Anticancer human tumor SUM149PT cell line growth inhibition [GQUAD];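 further: spheroids exposed to drugs for seven days before readout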;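 on viability, T/C: percent viability relative to DMSO vehicle control taken as 100%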
Conditions: for IC50: curve of first compound; for viability, T/C: stronger effect = lower value
Summary of the method: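 Tumor cells were grown as complex spheroids with HUVEC endothelial cells and mesenchymal stem cells as stroma. G-quadruplex stabilizers were combined with targeted agents over half-log dilutions from near the clinical Cmax, or from 10 microM.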

[1] = second compound 0.0316 µM, first compound 0.0316 µM
[2] = second compound 0.0316 µM, first compound 0.1 µM
[3] = second compound 0.0316 µM, first compound 0.316 µM
[4] = second compound 0.0316 µM, first compound 1 µM
[5] = second compound 0.0316 µM, first compound 3.16 µM
[6] = second compound 0.0316 µM, first compound 10 µM
[7] = second compound 0.1 µM, first compound 0.0316 µM
[8] = second compound 0.1 µM, first compound 0.1 µM
[9] = second compound 0.1 µM, first compound 0.316 µM
[10] = second compound 0.1 µM, first compound 1 µM
[11] = second compound 0.1 µM, first compound 3.16 µM
[12] = second compound 0.1 µM, first compound 10 µM
[13] = second compound 0.316 µM, first compound 0.0316 µM
[14] = second compound 0.316 µM, first compound 0.1 µM
[15] = second compound 0.316 µM, first compound 0.316 µM
[16] = second compound 0.316 µM, first compound 1 µM
[17] = second compound 0.316 µM, first compound 3.16 µM
[18] = second compound 0.316 µM, first compound 10 µM
[19] = second compound 1 µM, first compound 0.0316 µM
[20] = second compound 1 µM, first compound 0.1 µM
[21] = second compound 1 µM, first compound 0.316 µM
[22] = second compound 1 µM, first compound 1 µM
[23] = second compound 1 µM, first compound 3.16 µM
[24] = second compound 1 µM, first compound 10 µM
[25] = second compound 3.16 µM, first compound 0.0316 µM
[26] = second compound 3.16 µM, first compound 0.1 µM
[27] = second compound 3.16 µM, first compound 0.316 µM
[28] = second compound 3.16 µM, first compound 1 µM
[29] = second compound 3.16 µM, first compound 3.16 µM
[30] = second compound 3.16 µM, first compound 10 µM
[31] = second compound 10 µM, first compound 0.0316 µM
[32] = second compound 10 µM, first compound 0.1 µM
[33] = second compound 10 µM, first compound 0.316 µM
[34] = second compound 10 µM, first compound 1 µM
[35] = second compound 10 µM, first compound 3.16 µM
[36] = second compound 10 µM, first compound 10 µM

Structure (SMILES): COc1ncnc(C2CC2)c1-c1ncc2cnn(Cc3ccc(-c4nc(C(F)(F)F)cn4C(C)C)cc3)c2n1 + Cc1cnc(CNC(=O)c2c(=O)c3ccc(N4CCCN(C)CC4)nc3n3c2sc2ccccc23)cn1
- IC50 (second compound 0.0316 µM): > 10000 nM
- IC50 (second compound 0.1 µM): 31.6 nM
- IC50 (second compound 0.316 µM): < 31.6 nM
- IC50 (second compound 1 µM): < 31.6 nM
- IC50 (second compound 3.16 µM): < 31.6 nM
- IC50 (second compound 10 µM): < 31.6 nM
- viability, T/C [1]: 87.3%
- viability, T/C [2]: 63.3%
- viability, T/C [3]: 62.1%
- viability, T/C [4]: 61.9%
- viability, T/C [5]: 70.5%
- viability, T/C [6]: 81.5%
- viability, T/C [7]: 55.3%
- viability, T/C [8]: 57.5%
- viability, T/C [9]: 45.2%
- viability, T/C [10]: 48.1%
- viability, T/C [11]: 57.1%
- viability, T/C [12]: 62.7%
- viability, T/C [13]: 45.1%
- viability, T/C [14]: 50.3%
- viability, T/C [15]: 45.6%
- viability, T/C [16]: 43.1%
- viability, T/C [17]: 48.1%
- viability, T/C [18]: 56.1%
- viability, T/C [19]: 37.4%
- viability, T/C [20]: 38.4%
- viability, T/C [21]: 47.1%
- viability, T/C [22]: 41.4%
- viability, T/C [23]: 40%
- viability, T/C [24]: 49.4%
- viability, T/C [25]: 35%
- viability, T/C [26]: 32.9%
- viability, T/C [27]: 34.1%
- viability, T/C [28]: 33.5%
- viability, T/C [29]: 40%
- viability, T/C [30]: 39.1%
- viability, T/C [31]: 0.16%
- viability, T/C [32]: 11.9%
- viability, T/C [33]: 27.6%
- viability, T/C [34]: 11%
- viability, T/C [35]: 3.43%
- viability, T/C [36]: 1.12%

Structure (SMILES): O=C(NO)c1cnc(N2CCN(S(=O)(=O)c3ccc4ccccc4c3)CC2)nc1 + Cc1cnc(CNC(=O)c2c(=O)c3ccc(N4CCCN(C)CC4)nc3n3c2sc2ccccc23)cn1
- IC50 (second compound 0.0316 µM): 124 nM
- IC50 (second compound 0.1 µM): 184 nM
- IC50 (second compound 0.316 µM): 121 nM
- IC50 (second compound 1 µM): < 31.6 nM
- IC50 (second compound 3.16 µM): < 31.6 nM
- IC50 (second compound 10 µM): < 31.6 nM
- viability, T/C [1]: 90.1%
- viability, T/C [2]: 47.7%
- viability, T/C [3]: 42.7%
- viability, T/C [4]: 0.16%
- viability, T/C [5]: 0.95%
- viability, T/C [6]: 3.31%
- viability, T/C [7]: 65.5%
- viability, T/C [8]: 52.9%
- viability, T/C [9]: 41.9%
- viability, T/C [10]: 0.15%
- viability, T/C [11]: 0.63%
- viability, T/C [12]: 2.26%
- viability, T/C [13]: 51.9%
- viability, T/C [14]: 54%
- viability, T/C [15]: 35.9%
- viability, T/C [16]: 2.48%
- viability, T/C [17]: 0.95%
- viability, T/C [18]: 0.63%
- viability, T/C [19]: 48.3%
- viability, T/C [20]: 45.7%
- viability, T/C [21]: 34%
- viability, T/C [22]: 1.85%
- viability, T/C [23]: 1.22%
- viability, T/C [24]: 0.11%
- viability, T/C [25]: 39%
- viability, T/C [26]: 37.8%
- viability, T/C [27]: 27.7%
- viability, T/C [28]: 0.11%
- viability, T/C [29]: 0.1%
- viability, T/C [30]: 0.32%
- viability, T/C [31]: 0.2%
- viability, T/C [32]: 2.04%
- viability, T/C [33]: 1.16%
- viability, T/C [34]: 0.97%
- viability, T/C [35]: 0.39%
- viability, T/C [36]: 2.62%

Source: PubChem BioAssay AID2060484 (Molecular Pharmacology Branch, DTP, NCI, 2025)
